According to paper PMC6089501 (Journal of Medicinal Chemistry, 2018):
In brackets after ≈: the same amount, converted by molar mass.

Tests used:
[1] = tested on: M. tuberculosis QcrB M342T mutant strain; type: cell-based, Mycobacterium tuberculosis
[2] = tested on: M. tuberculosis QcrB T313I mutant strain; type: cell-based, Mycobacterium tuberculosis

Compound	MIC M342T [1] [µM]	fold shift M342T [1]	MIC T313I [2] [µM]	fold shift T313I [2]
NC(=O)c1sc(N2CCOCC2)cc1OCCc1cccc(F)c1 [Compound 39, 3-[2-(3-Fluorophenyl)ethoxy]-5-morpholinothiophene-2-carboxamide]	7 (≈ 2.45 µg/mL)	14	59 (≈ 20.7 µg/mL)	110
NC(=O)c1sc(N2CCOCC2)cc1OCCc1ccccc1 [Compound 1, 5-Morpholino-3-phenethoxythiophene-2-carboxamide]	25 (≈ 8.31 µg/mL)	19	53 (≈ 17.6 µg/mL)	41
NC(=O)c1sc(-c2ccncc2)cc1OCCc1ccccc1 [Compound 35, 3-(2-Phenylethoxy)-5-(4-pyridyl)thiophene-2-carboxamide]	>20	>3	>50	>8.6
NC(=O)c1sc(N2CCOCC2)cc1OCCc1ccc(OC(F)(F)F)cc1 [Compound 37, 5-Morpholino-3-[2-[4-(trifluoromethoxy)phenyl]ethoxy]thiophene-2-carboxamide]	–	–	11 (≈ 4.58 µg/mL)	46
CNC(=O)c1sc(N2CCOCC2)cc1OCCc1ccccc1 [Compound 21, N-Methyl-5-morpholino-3-(2-phenylethoxy)thiophene-2-carboxamide]	4.8 (≈ 1.66 µg/mL)	60	>20	>250
